Tested on: wireworm
Assay: Efficacy of chemical treatments on wireworm in potatoes grown in Washington State
Format: in vivo
Settings: result in words; values only in the figure
Source text: Experimental procedure for determining the efficacy of various chemical treatments on wire-worm in potatoes grown in Washington State, United States. Potato seed Solarium tuberosum L., ‘Russet Burbank’ was used in this experiment. Seeds were planted at a depth of 8 inches with spacing within the row at 10 inches and between rows at 34 inches. The experimental site was a 12 ft. by 20 ft. plot containing four experimental replications. [table] [table] [table]

## CCOC(=O)OC1=C(c2cc(C)ccc2C)C(=O)N[C@]12CC[C@@H](OC)CC2 [spirotetramat]
  percent reduction in wireworm infestation of potatoes (FIG. 3): confirm the efficacy
